Test results reported in the supplement of paper PMC9663587.

Experiments:
THZ531 [1] = compound: T1, CN(C)C/C=C/C(=O)Nc1ccc(C(=O)N2CCC[C@@H](Nc3ncc(Cl)c(-c4c[nH]c5ccccc45)n3)C2)cc1 [THZ531]; test: GR value, 72 h; higher = faster growth (1 = untreated, <0 = killing);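 note: breast cancer and non-malignant breast epithelial lines, nine half-log doses, viable cells counted by Hoechst and LIVE/DEAD dye imaging versus time-zero plates and DMSO controls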
[2] = compound: CCc1cnn2c(NCc3ccc[n+]([O-])c3)cc(N3CCCC[C@H]3CCO)nc12; test: as above
[3] = compound: CCN1CCN(Cc2ccc(Nc3ncc(F)c(-c4cc(F)c5nc(C)n(C(C)C)c5c4)n3)nc2)CC1; test: as above
LEE011/Ribociclib = compound: CN(C)C(=O)c1cc2cnc(Nc3ccc(N4CCNCC4)cn3)nc2n1C1CCCC1 [LEE011/Ribociclib]; test: as above
BSJ-03-123 = compound: CC(=O)c1c(C)c2cnc(Nc3ccc(N4CCN(CCOCCOCCOCCNC(=O)COc5cccc6c5C(=O)N(C5CCC(=O)NC5=O)C6=O)CC4)cn3)nc2n(C2CCCC2)c1=O [BSJ-03-123]; test: as above
YKL-5-124 = compound: C=CC(=O)Nc1ccc(C(=O)Nc2[nH]nc3c2CN(C(=O)N[C@H](CN(C)C)c2ccccc2)C3(C)C)cc1 [YKL-5-124]; test: as above
THZ1 = compound: CN(C)C/C=C/C(=O)Nc1ccc(C(=O)Nc2cccc(Nc3ncc(Cl)c(-c4c[nH]c5ccccc45)n3)c2)cc1 [THZ1]; test: as above
[4] = compound: CC(=O)c1c(C)c2cnc(Nc3ccc(N4CCNCC4)cn3)nc2n(C2CCCC2)c1=O; test: as above
THZ531 [5] = compound: T1, THZ531
Ceritinib/LDK378 = compound: Cc1cc(Nc2ncc(Cl)c(Nc3ccccc3S(=O)(=O)C(C)C)n2)c(OC(C)C)cc1C1CCNCC1 [Ceritinib/LDK378]
AZD6738 = compound: C[C@@H]1COCCN1c1cc(C2([S@](C)(=N)=O)CC2)nc(-c2cc[nH]c3nccc2-3)n1 [AZD6738]
Cediranib/AZD2171 = compound: COc1cc2c(Oc3ccc4[nH]c(C)cc4c3F)ncnc2cc1OCCCN1CCCC1 [Cediranib/AZD2171]
Paclitaxel = compound: CC(=O)O[C@H]1C(=O)[C@@]2(C)[C@H]([C@H](OC(=O)c3ccccc3)[C@]3(O)C[C@H](OC(=O)[C@H](O)[C@@H](NC(=O)c4ccccc4)c4ccccc4)C(C)=C1C3(C)C)[C@]1(OC(C)=O)CO[C@@H]1C[C@@H]2O [Paclitaxel]
Rucaparib = compound: CNCc1ccc(-c2[nH]c3cc(F)cc4c3c2CCNC4=O)cc1 [Rucaparib]
Tivantinib/ARQ197 = compound: O=C1NC(=O)[C@@H](c2cn3c4c(cccc24)CCC3)[C@@H]1c1c[nH]c2ccccc12 [Tivantinib/ARQ197]
BSJ-01-175 = compound: CN(C)C/C=C/C(=O)Nc1ccc(O[C@@H]2CCC[C@@H](Nc3ncc(Cl)c(-c4c[nH]c5ccccc45)n3)C2)cc1 [BSJ-01-175]
Pictilisib/GDC0941 = compound: CS(=O)(=O)N1CCN(Cc2cc3nc(-c4cccc5[nH]ncc45)nc(N4CCOCC4)c3s2)CC1 [Pictilisib/GDC0941]
senexin b = compound: CN1CCN(C(=O)c2ccc3cc(CCNc4ncnc5ccc(C#N)cc45)ccc3c2)CC1 [senexin b]
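Throughout, for GR50, 72 h: breast cancer and non-malignant breast epithelial cell lines, Deep Dye Drop or Dye Drop imaging, nine half-log doses, GR normalized to time-zero plates and DMSO-only controls.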

## SKBR3
THZ531 [1]; 0.0001 µM
  GR value: 1.03 GR
THZ531 [1]; 0.0003162 µM
  GR value: 0.963 GR
THZ531 [1]; 0.001 µM
  GR value: 0.975 GR
THZ531 [1]; 0.003162 µM
  GR value: 0.961 GR
THZ531 [1]; 0.01 µM
  GR value: 1.07 GR
THZ531 [1]; 0.03162 µM
  GR value: 0.411 GR
THZ531 [1]; 0.1 µM
  GR value: -0.26 GR
THZ531 [1]; 0.3162 µM
  GR value: -0.481 GR
THZ531 [1]; 1 µM
  GR value: -0.584 GR
[2]; 0.0001 µM
  GR value: 0.95 GR
[2]; 0.0003162 µM
  GR value: 0.921 GR
[2]; 0.001 µM
  GR value: 1.07 GR
[2]; 0.003162 µM
  GR value: 0.933 GR
[2]; 0.01 µM
  GR value: 0.0102 GR
[2]; 0.03162 µM
  GR value: -0.581 GR
[2]; 0.1 µM
  GR value: -0.6 GR
[2]; 0.3162 µM
  GR value: -0.628 GR
[2]; 1 µM
  GR value: -0.579 GR
[3]; 0.001 µM
  GR value: 0.874 GR
[3]; 0.003162 µM
  GR value: 0.866 GR
[3]; 0.01 µM
  GR value: 0.623 GR
[3]; 0.03162 µM
  GR value: 0.491 GR
[3]; 0.1 µM
  GR value: 0.402 GR
[3]; 0.3162 µM
  GR value: 0.337 GR
[3]; 1 µM
  GR value: 0.24 GR
[3]; 3.162 µM
  GR value: 0.27 GR
[3]; 10 µM
  GR value: 0.151 GR
LEE011/Ribociclib; 0.001 µM
  GR value: 0.897 GR
LEE011/Ribociclib; 0.003162 µM
  GR value: 0.728 GR
LEE011/Ribociclib; 0.01 µM
  GR value: 0.774 GR
LEE011/Ribociclib; 0.03162 µM
  GR value: 0.766 GR
LEE011/Ribociclib; 0.1 µM
  GR value: 0.776 GR
LEE011/Ribociclib; 0.3162 µM
  GR value: 0.471 GR
LEE011/Ribociclib; 1 µM
  GR value: 0.582 GR
LEE011/Ribociclib; 3.162 µM
  GR value: 0.429 GR
LEE011/Ribociclib; 10 µM
  GR value: 0.586 GR
BSJ-03-123; 0.001 µM
  GR value: 0.911 GR
BSJ-03-123; 0.003162 µM
  GR value: 0.855 GR
BSJ-03-123; 0.01 µM
  GR value: 0.825 GR
BSJ-03-123; 0.03162 µM
  GR value: 0.79 GR
BSJ-03-123; 0.1 µM
  GR value: 0.644 GR
BSJ-03-123; 0.3162 µM
  GR value: 0.75 GR
BSJ-03-123; 1 µM
  GR value: 0.506 GR
BSJ-03-123; 3.162 µM
  GR value: 0.514 GR
BSJ-03-123; 10 µM
  GR value: -0.35 GR
YKL-5-124; 0.001 µM
  GR value: 0.455 GR
YKL-5-124; 0.003162 µM
  GR value: 0.198 GR
YKL-5-124; 0.01 µM
  GR value: 0.164 GR
YKL-5-124; 0.03162 µM
  GR value: 0.137 GR
YKL-5-124; 0.1 µM
  GR value: 0.102 GR
YKL-5-124; 0.3162 µM
  GR value: -0.123 GR
YKL-5-124; 1 µM
  GR value: 0.0239 GR
YKL-5-124; 3.162 µM
  GR value: -0.0117 GR
YKL-5-124; 10 µM
  GR value: -0.572 GR
THZ1; 0.0001 µM
  GR value: 1.08 GR
THZ1; 0.0003162 µM
  GR value: 1.06 GR
THZ1; 0.001 µM
  GR value: 0.867 GR
THZ1; 0.003162 µM
  GR value: 0.854 GR
THZ1; 0.01 µM
  GR value: 0.743 GR
THZ1; 0.03162 µM
  GR value: 0.0057 GR
THZ1; 0.1 µM
  GR value: -0.515 GR
THZ1; 0.3162 µM
  GR value: -0.579 GR
THZ1; 1 µM
  GR value: -0.789 GR
[4]; 0.0003162 µM
  GR value: 1.05 GR
[4]; 0.001 µM
  GR value: 1.03 GR
[4]; 0.003162 µM
  GR value: 0.946 GR
[4]; 0.01 µM
  GR value: 0.845 GR
[4]; 0.03162 µM
  GR value: 0.697 GR
[4]; 0.1 µM
  GR value: 0.591 GR
[4]; 0.3162 µM
  GR value: 0.434 GR
[4]; 1 µM
  GR value: 0.48 GR
[4]; 3.162 µM
  GR value: 0.334 GR
THZ531 [5]
  GR50, 72 h: 0.0273 µM
Ceritinib/LDK378
  GR50, 72 h: 0.985 µM
AZD6738
  GR50, 72 h: 0.845 µM
Cediranib/AZD2171
  GR50, 72 h: 6.2 µM
Paclitaxel
  GR50, 72 h: 0.00191 µM
Rucaparib
  GR50, 72 h: > 10 µM
Tivantinib/ARQ197
  GR50, 72 h: 0.273 µM
BSJ-01-175
  GR50, 72 h: 0.00832 µM
Pictilisib/GDC0941
  GR50, 72 h: 0.114 µM
Senexin b
  GR50, 72 h: > 10 µM
